The structures appear in SMILES notation.

One assay relates to U937 cells. Kind of assay: Production of VEGF in supernatant of U937 culture. It is filed as cell-based, human. The note with it: FIG. 2. How it is done:
The inhibitory action of […] on the production of VEGF in the supernatant of U937 in culture was also evaluated.

The test system of a further assay is DBA/1J mice. Kind of assay: Rheumatoid arthritis: type II collagen immunization. It is filed as in vivo, mouse. How it is done: Rheumatoid arthritis (RA) is a chronic inflammatory disease that affects the joints in particular and is manifested by pain, stiffness and synovitis, which lead to destruction of the joint. Immunization of DBA/1J mice with type II collagen (CII) by intradermal injection, at the base of the tail, of 0.2 ml of an emulsion containing 2 mg/ml of bovine CII in complete Freund adjuvant induces T cells and autoantibodies specific to CII with clinical and histopathological signs that reproduce RA. Eighteen to twenty days after immunization, signs of inflammation appear, affecting one or more joints. At the first clinical signs of inflammation (inflammation of the digits and joints) with a score above 1.5 (Camps et al., 2005), we treated the animals with […] intraperitoneally (0.25 mg).
To establish the degree of infiltration of T cells in the arthritic lesions, sections fixed in formalin and embedded in paraffin were incubated with rabbit polyclonal anti-CD3 antibodies. After detection with peroxidase-labelled secondary antibodies, each sample was evaluated at 40× magnification and 3 immunoreactive “hot spots” were selected for counting the CD3^+ lymphocytes at 200× magnification.

The subject of the next assay is mice. Briefly: Visceral pain: acetic acid model. The format is in vivo, mouse. The note with it: 4 mg/kg intraperitoneally; FIG. 20. Here is the method: We verified the effect of […] on a model of visceral pain. 30 mice were divided into two groups of 15: one group received […] 4 mg/kg intraperitoneally while the other group was treated with only the pharmaceutical vehicle. After the pre-treatment injection, 0.6% acetic acid was administered as a bolus injection 0.3 ml IP. The mice were put in individual observation chambers for assessing, after a period of 20 minutes, the number of contractions induced in each animal following injection of acetic acid. The count started 5 minutes after administration of acetic acid.

The test system of the next assay is C57/Bl/6 mice. Briefly: COPD: acute cigarette smoke exposure, BALF. The format is in vivo, mouse. The note with it: 6 mg/kg intratracheal; FIG. 39. How it is done: C57/Bl/6 mice aged 6-8 weeks were exposed to room air or to the smoke of 5 cigarettes/day (Virginia brand with filter; tar 12 mg and nicotine 0.9 mg) for 3 consecutive days. For exposure to smoke, a special cage was used, which permits air exchange with the exterior or with the device that contains the cigarette only due to a mechanical fan, which also allows the smoke to be diluted with the external air (1:8) in order to simulate the situation of a smoker.
Starting on the fourth day, the mice were anaesthetized 30 minutes before exposure to the smoke and were administered 6 mg/kg of […] or vehicle by intratracheal injection. The mice were sacrificed one hour after the end of the treatment and a bronchoalveolar lavage was carried out.

For the next assay, the system named is Dark Agouti (DA) rats. Kind of assay: Chronic experimental autoimmune encephalomyelitis (MOG). To be noted: 1 mg/kg per os daily from day of inoculation, to day 50; dose-dependent; FIG. 43. The format is in vivo, rat. Here is the method:
We investigated whether treatment with […], at the onset of EAE induced by immunization with MOG (myelin-oligodendrocyte-glycoprotein), stimulates histologic protection and functional recovery.
The motor and sensory deficits were classified according to the previously assigned “neuronal” clinical scores.
Chronic EAE was induced in 60 female adult Dark Agouti (DA) rats of 120-170 g, immunizing the animals with an intradermal injection, at the base of the tail, of […] of recombinant protein MOG1-125 in emulsified PBS in complete Freund adjuvant (CFA) containing hot-inactivated M. tuberculosis.
The rats were divided into 3 groups of 20 animals each and were treated with daily administrations of vehicle or […] 0.1 or 1 mg/kg per os, starting from the day of inoculation.
The neurological scores were measured and evaluated daily for the first thirty days, and thereafter only on weekdays (Monday-Friday) until the end of the study (day 50).
The range of neuroclinical scores begins at 0 (absence of neurologic symptoms) and ends with a score of 5 (complete paralysis of all legs or animal moribund).

A further assay concerns Male Sprague-Dawley rats. Kind of assay: Neuropathic pain: SNI model (lesion of the sciatic nerve). It is filed as in vivo, rat. The source says:
We evaluated the effect of […] in a model of neuropathic pain: the model of lesion of the sciatic nerve. The characteristic feature of neuropathic pain is that both macroglia and microglia (the cells that support the neurons metabolically) can alter their phenotype (reactive gliosis) as a result of some traumatic-inflammatory peripheral events, duplicated in this model. These phenotypic and functional changes can become permanent and the perception of pain can continue even after its primary cause has disappeared. The cells react to the positive lesion by increasing the glial fibrillary acidic protein (GFAP) and the ionized calcium-binding adapter molecule (IBA1). Male Sprague-Dawley rats (250-300 g; Harlan, Italy) were divided into 5 groups.
Group I was treated with […] daily from day 1 to day 21; group II was treated daily with the drug from day 1 to day 7 and then again with a single dose on day 14; group III was treated with […] on day 1, day 7 and day 14; group IV was treated with only the vehicle and group V was submitted to a sham operation ([…]). […]
Behavioural tests were performed daily from day 0 to day 7 and then on alternate days until day 28. Mechanical allodynia was induced by von Frey filament stimulation and the onset of thermal hyperalgesia was measured using the Ugo Basile apparatus according to Hargreaves' method, 1988.

In a further assay the test system is NOD/scid mice. Briefly: Graft-versus-host disease (human PBMCs). It is filed as in vivo, mouse. Here is the method:
Two groups of NOD/scid mice of 8-10 weeks were used, and were kept in cages under sterile flow at an SPF animal facility.
On day −1, to avoid residual activity of natural killer cells, the mice were administered an anti-NK antibody intraperitoneally (TMβ-1.1 mg/mouse). On day 0 the mice were irradiated (300 rad) and they were administered, intraperitoneally, 20×10^6 human peripheral blood mononuclear cells (PBMCs), previously isolated. The PBMCs are isolated by means of buffy coat from blood from healthy donors.
On the same day, the mice were treated with […] intraperitoneally at two doses, 10 mg/kg and 20 mg/kg. The treatment was repeated daily for 15 days.
The mice were checked regularly 3 times a week to monitor the weight loss (also as independent variable) and signs of GvHD using a clinical score (0 for weight loss <10%, 1 for 10%-20%, 2 for 20%; hunching (0-2), reactivity (0-2), appearance of the fur (0-2), and skin integrity (0-2)), with a maximum score of 10.

As for `C=C(C=O)OC(C=O)n1cnc2c(N)ncnc21` (centres unmarked) [2-[1-(6-aminopurin-9-yl)-2-oxoethoxy]prop-2-enal], the “cellular production of VEGF” value with U937 cells was “reduced the cellular production of VEGF significantly”. Further, in the assay with DBA/1J mice (0.25 mg i.p., FIG. 29A), the “cartilage erosion (content of proteoglycans)” value is given as “significant reduction in cartilage erosion”. The “CD3+ lymphocytes infiltrating the joint” value in the assay on DBA/1J mice (0.25 mg i.p., FIG. 29B) is “significant reduction in CD3+ lymphocytes”. Also, the clinical score entry in the assay with DBA/1J mice (0.25 mg intraperitoneally, from score above 1.5, vs carrier, FIG. 29C) is recorded as “significant reduction in the clinical score”. Also, in the assay on mice, the “visceral pain (number of contractions after acetic acid)” value is given as “effective in the treatment of visceral pain”. Besides, the “immune cells and messengers of inflammation in BALF” value in the assay with C57/Bl/6 mice was “slight finding of immune cells and of messengers of inflammation”. The neurological scores result in the assay with Dark Agouti (DA) rats is on record as “remained lower throughout the period of observation”. Besides, the “pain (mechanical allodynia, thermal hyperalgesia)” value in the assay on Male Sprague-Dawley rats (6 mg/kg and 30 mg/kg i.p., from first day until 7 days after end of treatment, FIGS. 10-15) was “reduces pain significantly”. For the same molecule, the “expression of the proteins of reactive gliosis Ibal and GFAP (immunohistochemical analysis)” value in the assay with Male Sprague-Dawley rats (animals treated daily) is listed as “returns almost to the normal levels”. Further, in the assay with NOD/scid mice (10 mg/kg and 20 mg/kg i.p. daily for 15 days, FIG. 37), the “resistance to GvHD (clinical score)” value is “statistically significant, dose-dependent resistance to GvHD”. Moreover, in the assay with NOD/scid mice (10 and 20 mg/kg i.p., untreated all die within 50 days), the survival result is listed as “reaching three months from transplant”.

The values above are taken from US20160129005A1, “ADENINE DERIVATIVES HAVING IMMUNOMODULATING ANTI-INFLAMMATORY AND ANALGESIC ACTIVITY” (MEDESTEA RESEARCH & PRODUCTION S.p.A., priority 2011, published 2016).
